Measurements published in US10519211B2, “Compounds as peptidic GLP1/glucagon/GIP receptor agonists” (SANOFI, priority 2016, dated 2019).
Numbered stars: 1 amine (or outer) side, 2 acyl side, 3 side chain; on linkers, the order of the positions; unused ones are H or OH. Square brackets hold non-standard residues; d marks the D form. Side chains are listed from the residue outwards. Peptide text beside a SMILES is read from it. * marks the point of attachment. γGlu = O=C(O)[C@H](CCC(=O)[*:2])N[*:1]; Palmitoyl = CCCCCCCCCCCCCCCC(=O)*; Aib = CC(C)(N)C(=O)O

Legend:
[1] = system: female, diabetic db/db mice; test: Acute effects after subcutaneous treatment on blood glucose in non-fasting diabetic db/db mice; format: in vivo, mouse
Protocol: Female healthy, lean BKS.Cg-(lean)/OlaHsd and diabetes-prone, obese BKS.Cg-+Lepr^db/+Lepr^db/OlaHsd mice were ordered group housed from Envigo RMS Inc., shipped group housed and remained group housed in shoebox caging with wood chip bedding until day 15 of the predose phase. At the study start mice were approximately 12 weeks old.
Mice were housed under vivarium conditions including a 12 h light/dark cycle (light phase 04:00 AM-4:00 PM), room temperatures between 23-26° C. and a relative humidity between 30-70%. All animals had free access to water and Purina Fomulab Diet 5008.
On predose day 9 blood glucose and body mass (approximately between 08:00-10:00 AM) as well as HbA1c measurements were performed. On day 15 of the predose phase animals were assigned to treatment groups (n=8) and to new cages to match mean HbA1c and body masses between all db/db groups. An age-matched lean group was included in the study as a healthy, lean reference.
Prior to day 1 of the dosing phase, the test article was diluted with Phosphate Buffered Saline (PBS, Gibco, without CaCl2 and MgCl2) to a concentration of 1 mg/mL and aliquots of this stock solution were stored at approximately −60° C. On day 1 of the dosing phase the stock aliquot was thawed and the injected test article solution was prepared fresh by diluting it with PBS to achieve the desired concentration.
On Day 1 of the dosing phase db/db mice were either treated once with a s.c. injection of PBS-vehicle or 30 μg/kg test article. The lean reference group was treated once with a s.c. injection of PBS-vehicle. The dosing was initiated and completed between 08:00 and 10:00 AM. The applied volume was 5 ml/kg and the dose was adjusted to the most recent body mass recording of each individual.
Animals had unlimited access to water and feed during the experiment. On day 1 of the dosing phase approximately 5 μL of blood were collected via tail clips at minute −30 and 0 prior to any other inlife activities. At minute 0 mice received a s.c. dose of either PBS-vehicle or 30 μg/kg test article. Further blood samples were harvested at hour 0.25, 0.5, 1, 1.5, 2, 3, 4, 6, 8, and 24 post-dose. Glucose measurements were performed in whole blood using AlphaTRAK glucometers. If the glucose concentrations of two measurements differed by more than 20 mg/dL a third value was recorded. The Area Under the Curve (AUC) for blood glucose was calculated via the trapezoid method and for the duration of the 24 post-dose hours.
Data are depicted as means±SEM. […] A One-Way ANOVA and Tukey Test were used for pairwise multiple comparisons of all groups (n=8/group, deviations from group size are indicated). […] Data from a Non-Diabetic-Vehicle group serve as a reference dataset for the normoglycemic, lean state.
Female, 12 weeks old, healthy, lean BKS.Cg-(lean)/OlaHsd or diabetes-prone, obese BKS.Cg-+Leprdb/+Leprdb/OlaHsd mice were treated once with a s.c. injection of PBS, 30 μg/kg SEQ ID NO: 6 or 30 μg/kg SEQ ID NO: 7. The dosing was initiated and completed between 08:00 and 10:00 AM. The applied volume was 5 ml/kg and the dose was adjusted to the most recent body mass recording of each individual. Diabetic db/db mice were HbA1c- and body mass-matched. The lean reference group was treated once with a s.c. injection of PBS-vehicle.
Animals had unlimited access to water and feed during the experiment. On day 1 of the dosing phase approximately 5 μL of blood were collected via tail clips at minute −30 and 0 prior to any other inlife activities. At minute 0 mice received a s.c. dose of either PBS-vehicle, 30 μg/kg SEQ ID NO: 6 or SEQ ID NO: 7. Further blood samples were harvested at minute 15, 30, 60, 90, 120, 150, 180, 240, 360, and 480 post-dose. Glucose measurements were performed in whole blood using AlphaTRAK glucometers. If the glucose concentrations of two measurements differed by more than 20 mg/dL a third value was recorded. […]

[2] = Chemical stability assessment (UPLC-UV, relative purity loss); format: physicochemical; details: 1 mg/ml, 25 mM acetate buffer pH 4.5 with m-cresol (buffer system A)
How it was run: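 Peptide at 1 mg/mL (purity-corrected) in 25 mM acetate pH 4.5 with methionine, m-cresol and glycerol, sterile-filtered, stored 28 days at 40° C. Purity measured by UPLC-UV as peptide peak area fraction at start and after storage; value is relative percent purity loss.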

[3] = Thioflavin T (ThT) assay for physical stability (fibrillation); format: physicochemical; details: 3 mg/ml, 100 mM acetate pH 4.5 with m-cresol, shaking at 37° C.
How it was run: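 Peptide at 3 mg/ml with 100 μM ThT in 100 mM acetate pH 4.5 with m-cresol, stressed at 37° C by cycles of 10 s shaking at 960 rpm and 50 s rest. Fluorescence read every 20 minutes, eight replicates; lag time in hours.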

Row | Chemical stability [relative purity loss 28 days 40° C.] (%) at pH 4.5 [2] [%] | Lag time before increase [3] [h] | Structure (SMILES) | Blood glucose AUC compared to the Diabetic-Vehicle group ([1]; 30 μg/kg s.c. once, 24 h, in words) | Time post dose at which lowest blood glucose levels were reached ([1]; 30 μg/kg s.c. once, fed db/db mice) | Blood glucose profile following single treatment ([1]; 30 μg/kg s.c. once, fed db/db mice, in words) | Plasma glucose area under the curve (mmol/L in 24 h) ([1]; Table 10, once 30 μg/kg s.c., fed db/db mice, mean ± SEM)
1 | 6.9 | >45 | CCCCCCCCCCCCCCCC(=O)N[C@@H](CCC(=O)N[C@@H](CCC(=O)NCCCC[C@H](NC(=O)[C@H](CC(C)C)NC(=O)[C@H](CCCCN)NC(=O)[C@H](CO)NC(=O)[C@H](CC(C)C)NC(=O)[C@H](CC(=O)O)NC(=O)[C@H](CO)NC(=O)[C@@H](NC(=O)[C@H](Cc1ccccc1)NC(=O)[C@@H](NC(=O)CNC(=O)[C@H](CCC(N)=O)NC(=O)C(C)(C)NC(=O)[C@@H](N)Cc1c[nH]cn1)[C@@H](C)O)[C@@H](C)O)C(=O)N[C@@H](CCC(=O)O)C(=O)N[C@@H](CCCCN)C(=O)N[C@@H](CCC(N)=O)C(=O)N[C@@H](CCCNC(=N)N)C(=O)N[C@@H](CCC(N)=O)C(=O)NC(C)(C)C(=O)N[C@@H](CCC(=O)O)C(=O)N[C@@H](Cc1ccccc1)C(=O)N[C@H](C(=O)N[C@@H](CCC(=O)O)C(=O)N[C@@H](Cc1c[nH]c2ccccc12)C(=O)N[C@@H](CC(C)C)C(=O)N[C@@H](CCCCN)C(=O)N[C@@H](C)C(=O)NCC(=O)NCC(=O)N1CCC[C@H]1C(=O)N1CCC[C@H]1C(=O)N[C@@H](CO)C(=O)NC(C)(C)C(=O)N[C@@H](CCCCN)C(=O)N1CCC[C@H]1C(=O)N1CCC[C@H]1C(=O)N1CCC[C@H]1C(=O)N[C@@H](CCCCN)C(N)=O)[C@@H](C)CC)C(=O)O)C(=O)O [SEQ ID NO: 6, H-Aib-Q-G-T-F-T-S-D-L-S-K-L-K[gGlu-gGlu-Palm]-E-K-Q-R-Q-Aib-E-F-I-E-W-L-K-A-G-G-P-P-S-Aib-K-P-P-P-K-NH2] | statistically significant reduction in the blood glucose AUC | approximately 8 hours | acute decrease in blood glucose concentrations | +430.70 ± 26.41 mmol/L in 24 h
2 | 7.6 | >45 | CCCCCCCCCCCCCCCC(=O)N[C@@H](CCC(=O)N[C@@H](CCC(=O)NCCCC[C@H](NC(=O)[C@H](CC(C)C)NC(=O)[C@H](CCCCN)NC(=O)[C@H](CO)NC(=O)[C@H](CC(C)C)NC(=O)[C@H](CC(=O)O)NC(=O)[C@H](CO)NC(=O)[C@@H](NC(=O)[C@H](Cc1ccccc1)NC(=O)[C@@H](NC(=O)CNC(=O)[C@H](CCC(N)=O)NC(=O)C(C)(C)NC(=O)[C@@H](N)Cc1c[nH]cn1)[C@@H](C)O)[C@@H](C)O)C(=O)N[C@@H](CCC(=O)O)C(=O)N[C@@H](CCC(=O)O)C(=O)N[C@@H](CCC(N)=O)C(=O)N[C@@H](CCCNC(=N)N)C(=O)N[C@@H](CCC(N)=O)C(=O)NC(C)(C)C(=O)N[C@@H](CCC(=O)O)C(=O)N[C@@H](Cc1ccccc1)C(=O)N[C@H](C(=O)N[C@@H](CCC(=O)O)C(=O)N[C@@H](Cc1c[nH]c2ccccc12)C(=O)N[C@@H](CC(C)C)C(=O)N[C@@H](CCCCN)C(=O)N[C@@H](C)C(=O)NCC(=O)NCC(=O)N[C@@H](Cc1c[nH]cn1)C(=O)N1CCC[C@H]1C(=O)N[C@@H](CO)C(=O)NC(C)(C)C(=O)N[C@@H](CCCCN)C(=O)N1CCC[C@H]1C(=O)N1CCC[C@H]1C(=O)N1CCC[C@H]1C(=O)N[C@@H](CCCCN)C(N)=O)[C@@H](C)CC)C(=O)O)C(=O)O [SEQ ID NO: 8, H-Aib-Q-G-T-F-T-S-D-L-S-K-L-K[gGlu-gGlu-Palm]-E-E-Q-R-Q-Aib-E-F-I-E-W-L-K-A-G-G-H-P-S-Aib-K-P-P-P-K-NH2] |  |  |  | 
3 | 7.4 | >45 | CCCCCCCCCCCCCCCC(=O)N[C@@H](CCC(=O)N[C@@H](CCC(=O)NCCCC[C@H](NC(=O)[C@H](CC(C)C)NC(=O)[C@H](CCCCN)NC(=O)[C@H](CO)NC(=O)[C@H](CC(C)C)NC(=O)[C@H](CC(=O)O)NC(=O)[C@H](CO)NC(=O)[C@@H](NC(=O)[C@H](Cc1ccccc1)NC(=O)[C@@H](NC(=O)CNC(=O)[C@H](CCC(N)=O)NC(=O)C(C)(C)NC(=O)[C@@H](N)Cc1c[nH]cn1)[C@@H](C)O)[C@@H](C)O)C(=O)N[C@@H](CCC(=O)O)C(=O)N[C@@H](CCC(=O)O)C(=O)N[C@@H](CCC(N)=O)C(=O)N[C@@H](CCCNC(=N)N)C(=O)N[C@@H](CCC(N)=O)C(=O)NC(C)(C)C(=O)N[C@@H](CCC(=O)O)C(=O)N[C@@H](Cc1ccccc1)C(=O)N[C@H](C(=O)N[C@@H](CCC(=O)O)C(=O)N[C@@H](Cc1c[nH]c2ccccc12)C(=O)N[C@@H](CC(C)C)C(=O)N[C@@H](CCCCN)C(=O)N[C@@H](C)C(=O)N[C@H](C)C(=O)NCC(=O)N1CCC[C@H]1C(=O)N1CCC[C@H]1C(=O)N[C@@H](CO)C(=O)NC(C)(C)C(=O)N[C@@H](CCCCN)C(=O)N1CCC[C@H]1C(=O)N1CCC[C@H]1C(=O)N1CCC[C@H]1C(=O)N[C@@H](CCCCN)C(N)=O)[C@@H](C)CC)C(=O)O)C(=O)O [SEQ ID NO: 10, H-Aib-Q-G-T-F-T-S-D-L-S-K-L-K[gGlu-gGlu-Palm]-E-E-Q-R-Q-Aib-E-F-I-E-W-L-K-A-dAla-G-P-P-S-Aib-K-P-P-P-K-NH2] (H-H[Aib]QGTFTSDLSKLK([γGlu-γGlu-Palmitoyl])EEQRQ[Aib]EFIEWLKA[dA]GPPS[Aib]KPPPK-NH2) |  |  |  | 
4 | 8.7 | >45 | CCCCCCCCCCCCCCCC(=O)N[C@@H](CCC(=O)N[C@@H](CCC(=O)NCCCC[C@H](NC(=O)[C@H](CC(C)C)NC(=O)[C@H](CCCCN)NC(=O)[C@H](CO)NC(=O)[C@H](CC(C)C)NC(=O)[C@H](CC(=O)O)NC(=O)[C@H](CO)NC(=O)[C@@H](NC(=O)[C@H](Cc1ccccc1)NC(=O)[C@@H](NC(=O)CNC(=O)[C@H](CCC(N)=O)NC(=O)C(C)(C)NC(=O)[C@@H](N)Cc1c[nH]cn1)[C@@H](C)O)[C@@H](C)O)C(=O)N[C@@H](CCC(=O)O)C(=O)N[C@@H](CCC(=O)O)C(=O)N[C@@H](CCC(N)=O)C(=O)N[C@@H](CCCNC(=N)N)C(=O)N[C@@H](CCC(N)=O)C(=O)NC(C)(C)C(=O)N[C@@H](CCC(=O)O)C(=O)N[C@@H](Cc1ccccc1)C(=O)N[C@H](C(=O)N[C@@H](CCC(=O)O)C(=O)N[C@@H](Cc1c[nH]c2ccccc12)C(=O)N[C@@H](CC(C)C)C(=O)N[C@@H](CCCCN)C(=O)N[C@@H](C)C(=O)NCC(=O)NCC(=O)N1CCC[C@H]1C(=O)N1CCC[C@H]1C(=O)N[C@@H](CO)C(=O)NC(C)(C)C(=O)N[C@@H](CCCCN)C(=O)N1CCC[C@H]1C(=O)N1CCC[C@H]1C(=O)N1CCC[C@H]1C(=O)N[C@@H](CCCCN)C(N)=O)[C@@H](C)CC)C(=O)O)C(=O)O [SEQ ID NO: 9, H-Aib-Q-G-T-F-T-S-D-L-S-K-L-K[gGlu-gGlu-Palm]-E-E-Q-R-Q-Aib-E-F-I-E-W-L-K-A-G-G-P-P-S-Aib-K-P-P-P-K-NH2] |  |  |  | 
